Experiments:
[1] = Central nervous depressant effect
benzodiazepine receptor = assay: Benzodiazepine (BZD) receptor binding, 3H-diazepam displacement, crude cortical membrane preparation
Method: For the studies of benzodiazepine /BZD) receptor binding crude cortical membrane preparation was used. […] ^3 H-diazepam was incubated with the membrane for 1 hr at 0° C. in TRIS-citrate buffer, pH 6.8. Specific binding was determined in the presence of 10 μM diazepam. In displacement studies chlordiazepoxide was used as control drug.

[2] = Screening test: one session conditioning / unconditioned reflex, glass cylinder jump; assay type: in vivo, rats
Method: Was elaborated for studying learning and retention of rats during one session conditioning.
During conditioning rats are trained to jump onto the top of glass cylinder by the electric foot-shock (110 V). The escape reaction (unconditioned reflex, UR) is paired with a bell as conditioned stimulus. The criterion of learning is that conditioned reflex (CR) should be elicited 10 times with 10 s intervals without reinforcement. Retention of CR is taken positive when 24 h following the experiment CR can be elicited. In these experiments animals are distributed into 4 categories on the basis of their learning ability.

malaria = conditions: cited from earlier work
[3] = Effect on basal metabolism (O2 consumption); assay type: in vivo, rats; conditions: urethane 0.6 g/kg i.p., 30° C.
Method: The O2 consumption of rats was measured by the method of Issekutz and Issekutz (1952) at constant temperature (30° C.).
O2 consumption of the animals was expressed in ml/h and calculated for body surface, and given finally in ml/h/dm^2. Following injection of urethane and the basal O2 consumption was measured during 30 minutes. This was followed by the injection of the test substance and O2 consumption was registered immediately afterwards. The difference between the highest O2 consumption and the basal value was expressed in percent.
O2 consumption of the animals was calculated according to the following equation: [formula] V=2000 cm^3 P=pressure fall (mmHg)
T=period of measurement (h)
O2 consumption was calculated for body surface and expressed as ml/dm^2 /h. Body surface was calculated on the basis of the "Diack" formula: […]

SMILES	spasmolytic effect (Spasmolytic effect)	central nervous depressant effect [1]	binding by benzodiazepine receptors (benzodiazepine receptor)	displacement of 3H-diazepam specific binding (benzodiazepine receptor; crude cortical membrane, 1 hr, 0° C., TRIS-citrate buffer, pH 6.8)	escape of animals in the one session unconditioned reflex test ([2]; even in high doses)	inhibition of non-specific activation mechanisms ([2]; rat, in vivo)	effect against malaria (malaria)	inhibition of the development of conditioned reflex ([2]; 0.025 mg/kg)	rate of metabolism / O2 consumption [3]
Cc1nc2cnc3ccccc3c2s1 [Formula I, 2-methyl-thiazolo[4,5-c]quinoline]	void of any spasmolytic effect	significantly stronger central depressant effect than benzodiazepines	not bound by benzodiazepine receptors	even in high concentration did not alter the specific binding of ^3 H-diazepam	enables the escape of animals	does not inhibit non-specific activation mechanisms	completely ineffective against malaria		
O=C(CCCN1CCC(O)(c2ccc(Cl)cc2)CC1)c1ccc(F)cc1 [Haloperidol, reference compound]								strong inhibition	slightly decreased
CC(N)Cc1ccccc1 (stereo not shown) [amphetamine]									dose-dependently increased

Source: patent publication US4778811A, “Pharmaceutical compositions of 2-methyl-thiazolo[4,5-c]quinoline” (EGIS Gyogyszergyar, priority 1985, dated 1988)
